# Results from patent publication US8933103B2, “Pyridone derivatives” (Daiichi Sankyo Company, Limited, priority 2012, dated 2015).
# pIC50: −log10 of the molar value.
# Target: T1, AXL (fusion protein of amino acids 464-885 of the intracellular domain of human AXL with glutathione transferase) (Homo sapiens, UniProt P30530)
# T1 sequence (P30530 464-885 isoform P30530-2): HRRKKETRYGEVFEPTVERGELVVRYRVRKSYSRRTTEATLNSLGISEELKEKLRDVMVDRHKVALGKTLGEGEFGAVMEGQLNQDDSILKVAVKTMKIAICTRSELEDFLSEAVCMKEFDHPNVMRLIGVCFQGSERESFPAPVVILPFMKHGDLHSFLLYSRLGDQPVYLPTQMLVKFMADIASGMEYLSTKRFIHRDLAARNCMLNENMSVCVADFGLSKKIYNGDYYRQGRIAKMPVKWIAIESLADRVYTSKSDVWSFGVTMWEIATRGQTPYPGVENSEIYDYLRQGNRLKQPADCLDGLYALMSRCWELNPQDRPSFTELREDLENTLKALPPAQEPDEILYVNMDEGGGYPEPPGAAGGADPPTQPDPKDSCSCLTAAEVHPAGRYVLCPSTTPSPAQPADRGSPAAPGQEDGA
# Test: Cell-Free Axl Kinase Inhibitory Activity
row,SMILES,pIC50
1,"Cc1cc(=O)c(C(=O)Nc2ccc(-c3cc(-c4cnn(C)c4)cnc3N)cc2)cn1Cc1ccc(F)cc1 [Example 57, N-{4-[2-Amino-5-(1-methyl-1H-pyrazol-4-yl)pyridin-3-yl]phenyl}-1-(4-fluorobenzyl)-6-methyl-4-oxo-1,4-dihydropyridine-3-carboxamide]",8.00 to 9.00
2,"COCCOc1ccc(-c2cnc(N)c(-c3ccc(NC(=O)c4cn(CC(F)(F)F)cc(-c5ccc(F)cc5)c4=O)cc3)c2)cc1OC [Example 38, N-(4-{2-Amino-5-[3-methoxy-4-(2-methoxyethoxy)phenyl]pyridin-3-yl}phenyl)-5-(4-fluorophenyl)-4-oxo-1-(2,2,2-trifluoroethyl)-1,4-dihydropyridine-3-carboxamide]",9.00 to 10.00
3,"COc1ccc(-c2cnc(N)c(-c3ccc(NC(=O)c4cn(C)cc(-c5ccc(F)cc5)c4=O)cc3)c2)cc1OC [Example 2, N-{4-[2-Amino-5-(3,4-dimethoxyphenyl)pyridin-3-yl]phenyl}-5-(4-fluorophenyl)-1-methyl-4-oxo-1,4-dihydropyridine-3-carboxamide]",8.00 to 9.00
4,"Cn1cc(-c2cnc(N)c(-c3ccc(NC(=O)c4cn(CCF)cc(-c5ccccc5)c4=O)cc3)c2)cn1 [Example 53, N-{4-[2-Amino-5-(1-methyl-1H-pyrazol-4-yl)pyridin-3-yl]phenyl}-1-(2-fluoroethyl)-4-oxo-5-phenyl-1,4-dihydropyridine-3-carboxamide]",8.00 to 9.00
5,"COc1ccc(-c2cnc(N)c(-c3ccc(NC(=O)c4cn(CCF)cc(-c5ccc(F)cc5)c4=O)cc3)c2)cc1OC [Example 8, N-{4-[2-Amino-5-(3,4-dimethoxyphenyl)pyridin-3-yl]phenyl}-1-(2-fluoroethyl)-5-(4-fluorophenyl)-4-oxo-1,4-dihydropyridine-3-carboxamide]",8.00 to 9.00
6,"CCn1cc(C(=O)Nc2ccc(-c3cc(-c4ccc(OC)c(OC)c4)cnc3N)cc2)c(=O)c(-c2ccc(F)cc2)c1 [Example 3, N-{4-[2-Amino-5-(3,4-dimethoxyphenyl)pyridin-3-yl]phenyl}-1-ethyl-5-(4-fluorophenyl)-4-oxo-1,4-dihydropyridine-3-carboxamide]",9.00 to 10.00
7,"Cc1cc(-c2cnc(N)c(-c3ccc(NC(=O)c4cn(CCF)cc(-c5ccc(F)cc5)c4=O)cc3)c2)ccn1 [Example 78, N-[4-(6-Amino-2′-methyl-3,4′-bipyridin-5-yl)phenyl]-1-(2-fluoroethyl)-5-(4-fluorophenyl)-4-oxo-1,4-dihydropyridine-3-carboxamide]",8.00 to 9.00
8,"COc1ccc(-c2cnc(N)c(-c3ccc(NC(=O)c4cn(CC(F)(F)F)cc(-c5ccccc5)c4=O)cc3)c2)cc1OC [Example 20, N-{4-[2-Amino-5-(3,4-dimethoxyphenyl)pyridin-3-yl]phenyl}-4-oxo-5-phenyl-1-(2,2,2-trifluoroethyl)-1,4-dihydropyridine-3-carboxamide]",8.00 to 9.00
9,"COc1cc(-c2cnc(N)c(-c3ccc(NC(=O)c4cn(CCF)cc(-c5ccccc5)c4=O)cc3)c2)ccc1OC[C@H]1COCCO1 [Example 44, N-[4-(2-Amino-5-{4-[(2R)-1,4-dioxan-2-ylmethoxy]-3-methoxyphenyl}pyridin-3-yl)phenyl]-1-(2-fluoroethyl)-4-oxo-5-phenyl-1,4-dihydropyridine-3-carboxamide]",8.00 to 9.00
10,"CCn1cc(C(=O)Nc2ccc(-c3cc(-c4cnn(C[C@H]5COCCO5)c4)cnc3N)cc2)c(=O)c(-c2ccc(F)cc2)c1 [Example 64, N-[4-(2-Amino-5-{1-[(2S)-1,4-dioxan-2-ylmethyl]-1H-pyrazol-4-yl}pyridin-3-yl)phenyl]-1-ethyl-5-(4-fluorophenyl)-4-oxo-1,4-dihydropyridine-3-carboxamide]",9.00 to 10.00
11,"Nc1ncc(-c2cnn(C[C@H]3COCCO3)c2)cc1-c1ccc(NC(=O)c2cn(Cc3ccc(F)cc3)cc(C(=O)N3CCCC3)c2=O)cc1F [Example 76, N-[4-(2-Amino-5-{1-[(2S)-1,4-dioxan-2-ylmethyl]-1H-pyrazol-4-yl}pyridin-3-yl)-3-fluorophenyl]-1-(4-fluorobenzyl)-4-oxo-5-(pyrrolidin-1-ylcarbonyl)-1,4-dihydropyridine-3-carboxamide]",9.00 to 10.00
12,"Cn1cc(-c2cnc(N)c(-c3ccc(NC(=O)c4cn(CC(F)(F)F)cc(-c5ccc(F)cc5)c4=O)cc3)c2)cn1 [Example 50, N-{4-[2-Amino-5-(1-methyl-1H-pyrazol-4-yl)pyridin-3-yl]phenyl}-5-(4-fluorophenyl)-4-oxo-1-(2,2,2-trifluoroethyl)-1,4-dihydropyridine-3-carboxamide]",9.00 to 10.00
13,"CCOCCn1cc(C(=O)Nc2ccc(-c3cc(-c4cnn(C[C@H]5COCCO5)c4)cnc3N)cc2)c(=O)c(-c2ccc(F)cc2)c1 [Example 67, N-[4-(2-Amino-5-{1-[(2S)-1,4-dioxan-2-ylmethyl]-1H-pyrazol-4-yl}pyridin-3-yl)phenyl]-1-(2-ethoxyethyl)-5-(4-fluorophenyl)-4-oxo-1,4-dihydropyridine-3-carboxamide]",8.00 to 9.00
14,"CCn1cc(C(=O)Nc2ccc(-c3cc(-c4cnn(C)c4)cnc3N)cc2)c(=O)c(-c2ccccc2)c1 [Example 52, N-{4-[2-Amino-5-(1-methyl-1H-pyrazol-4-yl)pyridin-3-yl]phenyl}-1-ethyl-4-oxo-5-phenyl-1,4-dihydropyridine-3-carboxamide]",8.00 to 9.00
15,"COc1cc(-c2cnc(N)c(-c3ccc(NC(=O)c4cn(CC(F)(F)F)cc(-c5ccc(F)cc5)c4=O)cc3)c2)ccc1OCCN1CCCC1 [Example 39, N-[4-(2-Amino-5-{3-methoxy-4-[2-(pyrrolidin-1-yl)ethoxy]phenyl}pyridin-3-yl)phenyl]-5-(4-fluorophenyl)-4-oxo-1-(2,2,2-trifluoroethyl)-1,4-dihydropyridine-3-carboxamide]",9.00 to 10.00
16,"COc1ccc(-c2cnc(N)c(-c3ccc(NC(=O)c4cn(CC(F)(F)F)cc(-c5ccc(Cl)cc5)c4=O)cc3)c2)cc1OC [Example 25, N-{4-[2-Amino-5-(3,4-dimethoxyphenyl)pyridin-3-yl]phenyl}-5-(4-chlorophenyl)-4-oxo-1-(2,2,2-trifluoroethyl)-1,4-dihydropyridine-3-carboxamide]",8.00 to 9.00
17,"COc1ccc(-c2cnc(N)c(-c3ccc(NC(=O)c4cn(Cc5ccc(F)cc5)cc(-c5nnc(C)o5)c4=O)cc3)c2)cc1OC [Example 28, N-{4-[2-Amino-5-(3,4-dimethoxyphenyl)pyridin-3-yl]phenyl}-1-(4-fluorobenzyl)-5-(5-methyl-1,3,4-oxadiazol-2-yl)-4-oxo-1,4-dihydropyridine-3-carboxamide]",9.00 to 10.00
18,"COc1ccc(-c2cnc(N)c(-c3ccc(NC(=O)c4cn(CC(F)(F)F)cc(-c5ccc(F)cc5)c4=O)cc3)c2)cc1O [Example 88, N-{4-[2-Amino-5-(3-hydroxy-4-methoxyphenyl)pyridin-3-yl]phenyl}-5-(4-fluorophenyl)-4-oxo-1-(2,2,2-trifluoroethyl)-1,4-dihydropyridine-3-carboxamide]",8.00 to 9.00
19,"COCCn1cc(C(=O)Nc2ccc(-c3cc(-c4cnn(C[C@H]5COCCO5)c4)cnc3N)cc2)c(=O)c(-c2ccc(F)cc2)c1 [Example 66, N-[4-(2-Amino-5-{1-[(2S)-1,4-dioxan-2-ylmethyl]-1H-pyrazol-4-yl}pyridin-3-yl)phenyl]-5-(4-fluorophenyl)-1-(2-methoxyethyl)-4-oxo-1,4-dihydropyridine-3-carboxamide]",8.00 to 9.00
